Numbers after ± are expanded uncertainties.
Assays:
[1] = Crystal; DTA
[2] = Molar enthalpy of transition or fusion; conditions: Crystal; DSC

For O=C1COCCO1 [1,4-dioxan-2-one], the Normal melting temperature [1] was 28.26 ± 0.5 °C and the “Molar enthalpy of transition or fusion” value [2] was 3.75 ± 0.0908 kcal/mol.

— the NIST ThermoML archive (doi:10.1021/je050406x)
